Laboratory results as given in ChEMBL document CHEMBL3627608, “Crystal structures of human RIP2 kinase catalytic domain complexed with ATP-competitive inhibitors: Foundations for understanding inhibitor selectivity” (Bioorg Med Chem, 2015).

How the values were obtained:
[1] = biological target: Tyrosine-protein kinase Blk (Homo sapiens) (UniProt P51451); assay: Inhibition of BLK (unknown origin) at 10 uM after 120 mins P33 radiolabeled kinase activity assay
[2] = biological target: Mitogen-activated protein kinase 14 (Homo sapiens) (UniProt Q16539); assay: Inhibition of P38alpha (unknown origin) at 10 uM after 120 mins P33 radiolabeled kinase activity assay
[3] = biological target: Serine/threonine-protein kinase MARK1 (Homo sapiens) (UniProt Q9P0L2); assay: Inhibition of MARK1 (unknown origin) at 10 uM after 120 mins P33 radiolabeled kinase activity assay
[4] = biological target: Serine/threonine-protein kinase PLK1 (Homo sapiens) (UniProt P53350); assay: Inhibition of PLK1 (unknown origin) at 10 uM after 120 mins P33 radiolabeled kinase activity assay
[5] = biological target: T1, Serine/threonine-protein kinase ULK1 (Homo sapiens) (UniProt O75385); assay: Inhibition of ULK1 (unknown origin) at 10 uM after 120 mins P33 radiolabeled kinase activity assay
T1 sequence (whole entry): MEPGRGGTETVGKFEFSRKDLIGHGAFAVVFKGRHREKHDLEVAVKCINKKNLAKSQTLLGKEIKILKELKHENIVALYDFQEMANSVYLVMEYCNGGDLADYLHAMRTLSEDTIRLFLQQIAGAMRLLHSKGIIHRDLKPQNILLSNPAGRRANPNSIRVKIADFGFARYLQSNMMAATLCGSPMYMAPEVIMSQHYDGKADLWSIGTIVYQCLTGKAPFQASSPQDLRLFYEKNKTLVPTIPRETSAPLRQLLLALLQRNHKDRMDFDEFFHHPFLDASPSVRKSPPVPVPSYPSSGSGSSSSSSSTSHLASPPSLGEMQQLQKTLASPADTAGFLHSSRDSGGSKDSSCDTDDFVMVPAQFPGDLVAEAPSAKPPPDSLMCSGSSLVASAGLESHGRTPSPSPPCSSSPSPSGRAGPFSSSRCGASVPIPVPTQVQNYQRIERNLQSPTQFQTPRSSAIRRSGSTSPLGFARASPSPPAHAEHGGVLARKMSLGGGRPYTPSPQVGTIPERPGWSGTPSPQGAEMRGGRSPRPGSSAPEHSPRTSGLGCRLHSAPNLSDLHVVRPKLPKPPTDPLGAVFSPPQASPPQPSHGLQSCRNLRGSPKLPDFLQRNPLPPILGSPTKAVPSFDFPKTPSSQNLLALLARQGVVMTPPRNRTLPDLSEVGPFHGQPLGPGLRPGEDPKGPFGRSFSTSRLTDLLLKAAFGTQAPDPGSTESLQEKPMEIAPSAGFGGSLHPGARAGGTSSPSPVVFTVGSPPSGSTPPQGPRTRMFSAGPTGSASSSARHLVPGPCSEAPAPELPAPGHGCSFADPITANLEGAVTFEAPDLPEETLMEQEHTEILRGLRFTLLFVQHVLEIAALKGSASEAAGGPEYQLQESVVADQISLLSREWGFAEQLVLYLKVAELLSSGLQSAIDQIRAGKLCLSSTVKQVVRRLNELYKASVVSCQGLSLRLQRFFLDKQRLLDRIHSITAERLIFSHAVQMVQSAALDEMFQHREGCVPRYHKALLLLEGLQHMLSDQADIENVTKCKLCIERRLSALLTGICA

[6] = biological target: T2, Serine/threonine-protein kinase ULK3 (Homo sapiens) (UniProt Q6PHR2); assay: Inhibition of ULK3 (unknown origin) at 10 uM after 120 mins P33 radiolabeled kinase activity assay
T2 sequence (whole entry): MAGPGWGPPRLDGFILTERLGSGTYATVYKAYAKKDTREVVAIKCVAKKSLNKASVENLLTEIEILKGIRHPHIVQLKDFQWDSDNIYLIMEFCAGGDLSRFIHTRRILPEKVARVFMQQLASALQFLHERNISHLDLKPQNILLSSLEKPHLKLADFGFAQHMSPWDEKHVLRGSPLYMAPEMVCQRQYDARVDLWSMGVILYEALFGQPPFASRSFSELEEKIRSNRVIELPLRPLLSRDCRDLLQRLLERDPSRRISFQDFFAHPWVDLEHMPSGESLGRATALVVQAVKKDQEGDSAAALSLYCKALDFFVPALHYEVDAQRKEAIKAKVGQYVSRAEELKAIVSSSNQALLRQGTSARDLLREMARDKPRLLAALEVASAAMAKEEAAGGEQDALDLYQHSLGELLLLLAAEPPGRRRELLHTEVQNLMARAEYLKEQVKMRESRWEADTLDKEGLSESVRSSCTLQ

[7] = biological target: Ribosomal protein S6 kinase beta-1 (Homo sapiens) (UniProt P23443); assay: Inhibition of RPS6KB1 (unknown origin) at 10 uM after 120 mins P33 radiolabeled kinase activity assay
[8] = biological target: ALK tyrosine kinase receptor (Homo sapiens) (UniProt Q9UM73); assay: Inhibition of ALK (unknown origin) at 10 uM after 120 mins P33 radiolabeled kinase activity assay
[9] = biological target: T3, 3-phosphoinositide-dependent protein kinase 1 (Homo sapiens) (UniProt O15530); assay: Inhibition of PDK1 (unknown origin) at 10 uM after 120 mins P33 radiolabeled kinase activity assay
T3 sequence (whole entry): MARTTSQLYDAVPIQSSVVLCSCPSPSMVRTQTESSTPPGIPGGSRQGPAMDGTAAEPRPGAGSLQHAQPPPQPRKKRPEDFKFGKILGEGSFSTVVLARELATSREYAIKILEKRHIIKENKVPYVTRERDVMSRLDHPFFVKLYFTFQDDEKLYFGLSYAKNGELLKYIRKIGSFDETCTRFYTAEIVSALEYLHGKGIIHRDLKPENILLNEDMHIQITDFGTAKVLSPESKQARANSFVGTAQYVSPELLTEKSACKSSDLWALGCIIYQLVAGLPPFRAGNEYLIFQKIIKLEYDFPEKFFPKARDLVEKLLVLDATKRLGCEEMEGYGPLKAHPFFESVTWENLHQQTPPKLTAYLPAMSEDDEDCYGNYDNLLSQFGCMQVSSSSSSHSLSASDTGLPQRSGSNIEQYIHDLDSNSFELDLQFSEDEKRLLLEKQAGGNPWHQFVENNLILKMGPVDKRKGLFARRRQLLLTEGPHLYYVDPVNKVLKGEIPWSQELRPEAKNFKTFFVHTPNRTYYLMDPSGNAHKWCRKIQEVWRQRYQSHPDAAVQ

[10] = biological target: Homeodomain-interacting protein kinase 2 (Homo sapiens) (UniProt Q9H2X6); assay: Inhibition of HIPK2 (unknown origin) at 10 uM after 120 mins P33 radiolabeled kinase activity assay
[11] = species on record: Homo sapiens; assay: Inhibition of PKCbeta2 (unknown origin) at 10 uM after 120 mins P33 radiolabeled kinase activity assay

Homeodomain-interacting protein kinase 2 (Homo sapiens), sequence (Q9H2X6 whole entry, looked up): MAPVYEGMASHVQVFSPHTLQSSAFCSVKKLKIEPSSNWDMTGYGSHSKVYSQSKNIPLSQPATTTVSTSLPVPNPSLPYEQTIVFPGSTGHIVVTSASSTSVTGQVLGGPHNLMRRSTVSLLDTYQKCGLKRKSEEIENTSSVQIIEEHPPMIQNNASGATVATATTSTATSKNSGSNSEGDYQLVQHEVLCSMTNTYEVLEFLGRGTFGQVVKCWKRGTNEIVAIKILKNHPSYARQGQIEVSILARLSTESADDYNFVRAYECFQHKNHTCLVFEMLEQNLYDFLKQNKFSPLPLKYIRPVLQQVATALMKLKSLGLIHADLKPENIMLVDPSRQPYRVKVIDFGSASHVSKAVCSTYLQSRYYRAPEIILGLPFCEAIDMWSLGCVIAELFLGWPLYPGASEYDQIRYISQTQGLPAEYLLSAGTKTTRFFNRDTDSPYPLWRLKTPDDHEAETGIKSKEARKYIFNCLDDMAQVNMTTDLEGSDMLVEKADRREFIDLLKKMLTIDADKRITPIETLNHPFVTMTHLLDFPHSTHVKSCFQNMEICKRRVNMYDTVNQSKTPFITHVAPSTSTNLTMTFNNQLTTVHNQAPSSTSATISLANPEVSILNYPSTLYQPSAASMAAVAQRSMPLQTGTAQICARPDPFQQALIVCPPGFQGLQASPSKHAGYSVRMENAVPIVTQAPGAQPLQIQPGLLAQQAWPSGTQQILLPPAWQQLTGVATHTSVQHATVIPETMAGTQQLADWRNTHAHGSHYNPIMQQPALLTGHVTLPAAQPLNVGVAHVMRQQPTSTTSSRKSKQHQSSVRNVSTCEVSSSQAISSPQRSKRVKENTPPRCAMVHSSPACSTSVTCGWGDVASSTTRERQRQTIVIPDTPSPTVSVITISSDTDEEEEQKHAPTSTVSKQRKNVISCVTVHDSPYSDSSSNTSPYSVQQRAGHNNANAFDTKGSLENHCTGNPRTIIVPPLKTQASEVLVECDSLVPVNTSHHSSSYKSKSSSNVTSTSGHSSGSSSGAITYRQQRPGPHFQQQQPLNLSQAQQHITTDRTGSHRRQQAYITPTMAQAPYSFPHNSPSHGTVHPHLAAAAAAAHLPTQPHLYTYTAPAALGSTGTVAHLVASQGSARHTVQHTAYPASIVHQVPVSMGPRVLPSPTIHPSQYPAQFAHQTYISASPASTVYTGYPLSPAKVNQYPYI
Ribosomal protein S6 kinase beta-1 (Homo sapiens), sequence (P23443 whole entry, looked up): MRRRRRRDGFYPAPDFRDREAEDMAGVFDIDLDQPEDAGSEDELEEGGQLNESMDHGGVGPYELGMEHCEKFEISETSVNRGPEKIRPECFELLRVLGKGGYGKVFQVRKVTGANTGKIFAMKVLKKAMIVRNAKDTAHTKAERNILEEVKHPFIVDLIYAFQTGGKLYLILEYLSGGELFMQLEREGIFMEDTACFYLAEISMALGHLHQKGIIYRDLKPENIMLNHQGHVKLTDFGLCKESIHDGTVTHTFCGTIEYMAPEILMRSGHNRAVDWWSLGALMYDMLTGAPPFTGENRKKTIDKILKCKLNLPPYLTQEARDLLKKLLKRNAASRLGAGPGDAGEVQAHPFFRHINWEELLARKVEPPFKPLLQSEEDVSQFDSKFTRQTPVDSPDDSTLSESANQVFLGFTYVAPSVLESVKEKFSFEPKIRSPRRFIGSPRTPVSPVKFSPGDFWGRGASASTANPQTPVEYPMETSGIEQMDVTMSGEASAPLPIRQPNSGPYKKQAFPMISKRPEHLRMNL
ALK tyrosine kinase receptor (Homo sapiens), sequence (Q9UM73 19-1620 limits assumed): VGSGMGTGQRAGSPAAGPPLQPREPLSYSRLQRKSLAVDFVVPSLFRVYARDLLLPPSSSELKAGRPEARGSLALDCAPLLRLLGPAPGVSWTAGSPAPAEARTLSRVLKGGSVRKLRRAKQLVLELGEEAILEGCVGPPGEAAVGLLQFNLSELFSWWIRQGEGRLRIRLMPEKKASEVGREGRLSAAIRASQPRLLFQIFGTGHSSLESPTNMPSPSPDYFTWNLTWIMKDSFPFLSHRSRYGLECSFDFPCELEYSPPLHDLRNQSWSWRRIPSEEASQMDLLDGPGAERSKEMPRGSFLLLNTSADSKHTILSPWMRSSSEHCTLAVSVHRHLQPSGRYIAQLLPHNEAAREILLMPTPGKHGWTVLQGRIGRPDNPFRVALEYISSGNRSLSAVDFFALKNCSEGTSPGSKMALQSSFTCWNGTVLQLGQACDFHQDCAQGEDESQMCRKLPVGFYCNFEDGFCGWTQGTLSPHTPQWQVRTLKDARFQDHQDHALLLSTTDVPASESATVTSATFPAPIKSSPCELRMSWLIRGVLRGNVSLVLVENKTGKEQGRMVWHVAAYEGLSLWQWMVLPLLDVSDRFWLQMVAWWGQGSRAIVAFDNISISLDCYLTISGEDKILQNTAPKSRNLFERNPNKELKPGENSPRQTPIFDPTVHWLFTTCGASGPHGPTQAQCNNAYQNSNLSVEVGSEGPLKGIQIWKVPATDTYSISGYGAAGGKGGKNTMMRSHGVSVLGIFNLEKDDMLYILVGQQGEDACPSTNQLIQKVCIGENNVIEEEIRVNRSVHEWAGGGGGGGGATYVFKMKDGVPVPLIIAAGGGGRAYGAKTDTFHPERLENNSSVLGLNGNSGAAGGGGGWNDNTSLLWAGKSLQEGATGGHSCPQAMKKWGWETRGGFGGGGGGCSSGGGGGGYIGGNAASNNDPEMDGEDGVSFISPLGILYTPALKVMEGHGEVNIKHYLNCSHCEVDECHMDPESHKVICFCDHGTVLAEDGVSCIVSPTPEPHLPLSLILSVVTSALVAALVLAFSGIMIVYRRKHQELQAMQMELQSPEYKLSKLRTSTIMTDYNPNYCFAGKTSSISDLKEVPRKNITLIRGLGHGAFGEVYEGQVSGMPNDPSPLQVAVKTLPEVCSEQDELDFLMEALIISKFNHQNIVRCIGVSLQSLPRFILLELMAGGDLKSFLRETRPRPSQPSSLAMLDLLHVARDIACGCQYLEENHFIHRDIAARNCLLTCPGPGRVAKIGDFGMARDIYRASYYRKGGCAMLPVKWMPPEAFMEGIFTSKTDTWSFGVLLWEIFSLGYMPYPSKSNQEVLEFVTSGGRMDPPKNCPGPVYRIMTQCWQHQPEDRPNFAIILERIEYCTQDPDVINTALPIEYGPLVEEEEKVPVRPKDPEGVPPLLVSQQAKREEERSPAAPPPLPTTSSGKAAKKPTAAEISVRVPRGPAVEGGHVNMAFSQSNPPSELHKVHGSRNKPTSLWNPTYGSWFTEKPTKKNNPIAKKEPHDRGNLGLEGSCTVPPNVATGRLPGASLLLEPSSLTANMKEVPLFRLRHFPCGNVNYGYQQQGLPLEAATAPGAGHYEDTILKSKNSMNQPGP
Serine/threonine-protein kinase PLK1 (Homo sapiens), sequence (P53350 whole entry): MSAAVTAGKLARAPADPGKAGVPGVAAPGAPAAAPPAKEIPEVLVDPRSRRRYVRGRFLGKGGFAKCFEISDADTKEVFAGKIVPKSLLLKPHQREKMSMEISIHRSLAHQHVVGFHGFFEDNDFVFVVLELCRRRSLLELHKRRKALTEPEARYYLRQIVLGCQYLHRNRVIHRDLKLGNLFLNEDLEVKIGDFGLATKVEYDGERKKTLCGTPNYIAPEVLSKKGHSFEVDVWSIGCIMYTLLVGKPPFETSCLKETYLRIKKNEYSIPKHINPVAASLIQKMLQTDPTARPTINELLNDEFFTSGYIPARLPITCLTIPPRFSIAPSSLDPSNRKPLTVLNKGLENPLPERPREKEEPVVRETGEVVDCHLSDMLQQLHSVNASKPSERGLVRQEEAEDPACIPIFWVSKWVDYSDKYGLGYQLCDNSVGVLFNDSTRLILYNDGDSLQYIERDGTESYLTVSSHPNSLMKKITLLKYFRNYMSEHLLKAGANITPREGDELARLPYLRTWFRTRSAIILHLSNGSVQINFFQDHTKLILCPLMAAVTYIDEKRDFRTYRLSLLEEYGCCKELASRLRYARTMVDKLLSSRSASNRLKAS
Mitogen-activated protein kinase 14 (Homo sapiens), sequence (Q16539 whole entry): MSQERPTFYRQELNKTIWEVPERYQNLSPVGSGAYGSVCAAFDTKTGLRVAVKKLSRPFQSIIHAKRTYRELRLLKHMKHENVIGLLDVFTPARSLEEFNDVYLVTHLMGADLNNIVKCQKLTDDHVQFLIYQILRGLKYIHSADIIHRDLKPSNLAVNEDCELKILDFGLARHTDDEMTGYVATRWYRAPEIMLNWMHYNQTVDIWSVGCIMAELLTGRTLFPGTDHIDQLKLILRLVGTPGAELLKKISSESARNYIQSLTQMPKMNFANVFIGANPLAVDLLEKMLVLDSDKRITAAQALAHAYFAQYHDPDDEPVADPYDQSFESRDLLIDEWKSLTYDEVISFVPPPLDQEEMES
Serine/threonine-protein kinase MARK1 (Homo sapiens), sequence (Q9P0L2 whole entry, looked up): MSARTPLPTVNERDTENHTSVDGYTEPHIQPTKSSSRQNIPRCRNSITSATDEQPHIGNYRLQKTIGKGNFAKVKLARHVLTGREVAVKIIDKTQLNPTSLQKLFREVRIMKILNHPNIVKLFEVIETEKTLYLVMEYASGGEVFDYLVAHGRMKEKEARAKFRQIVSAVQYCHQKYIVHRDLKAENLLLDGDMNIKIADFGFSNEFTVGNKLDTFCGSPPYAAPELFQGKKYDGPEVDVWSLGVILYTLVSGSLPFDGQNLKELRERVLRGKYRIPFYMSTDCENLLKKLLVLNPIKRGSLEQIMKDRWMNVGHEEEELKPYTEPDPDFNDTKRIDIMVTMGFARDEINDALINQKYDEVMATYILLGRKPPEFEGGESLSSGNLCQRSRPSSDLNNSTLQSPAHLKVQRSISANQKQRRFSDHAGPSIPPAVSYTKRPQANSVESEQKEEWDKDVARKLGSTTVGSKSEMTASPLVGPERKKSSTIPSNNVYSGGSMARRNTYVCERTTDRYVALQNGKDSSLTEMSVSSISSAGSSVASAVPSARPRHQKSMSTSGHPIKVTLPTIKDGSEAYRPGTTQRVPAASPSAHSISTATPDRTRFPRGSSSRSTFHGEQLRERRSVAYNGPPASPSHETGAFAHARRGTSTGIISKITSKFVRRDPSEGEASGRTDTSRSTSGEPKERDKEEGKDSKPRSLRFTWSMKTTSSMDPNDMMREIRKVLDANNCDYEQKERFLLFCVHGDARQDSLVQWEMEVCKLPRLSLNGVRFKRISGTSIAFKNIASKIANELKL

Row | inhibition [1] [%] | inhibition [2] [%] | inhibition [3] [%] | inhibition [4] [%] | inhibition [5] [%] | inhibition [6] [%] | inhibition [7] [%] | inhibition [8] [%] | inhibition [9] [%] | inhibition [10] [%] | inhibition [11] [%] | Compound
1 | 34.2 | 62.3 | 3.28 | -0.52 | 3.62 | -5.07 | 6.1 | 0.02 | 4.43 | -4.82 | 31.5 | COCCNC(=O)c1ccc2c(c1)nc(-c1cnc(-c3ccc(Cl)cc3)[nH]1)n2CCOC
2 | 99.4 | 18.8 | 10.3 | 5.27 | 52.4 | 89.6 | 48.5 | 6.1 | 7.26 | 91.4 | 9.1 | CS(=O)(=O)c1cccc(Nc2nccc(-c3sc(N4CCOCC4)nc3-c3cccc(NS(=O)(=O)c4c(F)cccc4F)c3)n2)c1
3 | 65.8 | 98.9 | 4.99 | 1.09 | 5.71 | 31.7 | 84.2 | 17.4 | 8.32 | 18.1 | 9.88 | CC(C)(C)c1cc(NC(=O)Nc2ccc(Oc3ccncc3)cc2)no1
